Tested on: Aβ42 production and/or release from SM-4 cells
Assay: Aβ42 ELISA of culture media from SM-4 cells
Assay type: cell-based
Conditions: 16 hrs
Method: Cell Lines and Pharmacological Treatments. 293 EBNA cells (InVitrogen, Carlsbad, Calif.) stably transfected with Swedish mutant β-Amyloid Precursor Protein -695 (SM4 cells) were routinely maintained in DMEM supplemented with sodium pyruvate (1 mM) and 10% fetal bovine serum. Cells were seeded into poly-D-Lysine (SIGMA) coated 6-well plates at a density of 5-7×10^5 cells per well. Subsequently, the cells were rinsed in 1 ml of PBS and treated with 10-500 μM of pirinixic acid in serum-free/phenol red-free DMEM for 16 hours.
(§1) Aβ Detection and Standardization. After the pharmacological treatment, the exposure media was collected and supplemented with 10% sample treatment buffer (40 mM sodium phosphate (pH 7.4), 40 mM triethanolamine, 0.1% Triton X-100, 200 mM NaCl, 2 mM EGTA, 0.1% Sodium azide), and assayed for either Aβ40 or Aβ42 by a calorimetric ELISA as per the manufacturer's protocol (Biosource International Inc, California). The cells were lysed in 0.1% Triton X-100 in PBS supplemented with 5 μM propridium iodide (Molecular Probes, Eugene, Oreg.) and incubated at 37° C. for 30 minutes prior to measuring fluorescence. Aβ40 and Aβ42 were standardized against propridium iodide fluorescence as a measure of total cell number. […]
as §1, with “After” for “Aβ Detection and Standardization. After”
After the pharmacological treatment, the exposure media was collected and supplemented with 10% sample treatment buffer (40 mM sodium phosphate (pH 7.4), 40 mM triethanolamine, 0.1% Triton X-100, 200 mM NaCl, 2 mM EGTA, 0.1% Sodium azide), and assayed for either Aβ40 or Aβ42 by a colorimetric ELISA as per the manufacturer's protocol (Biosource International Inc, California). The cells were lysed in 0.1% Triton X-100 in PBS supplemented with 5 μM propridium iodide (Molecular Probes, Eugene, Oreg.) and incubated at 37° C. for 30 minutes prior to measuring fluorescence. Aβ40 and Aβ42 were standardized against propridium iodide fluorescence as a measure of total cell number.

Cc1cccc(Nc2cc(Cl)nc(SCC(=O)O)n2)c1C [pirinixic acid]
decrease in Aβ42 (50 μM, p<0.001): 15%
decrease in Aβ42 (500 μM): 60%

Reference: patent US20030191144A1, “Compounds, compositions and methods for modulating beta-amyloid production” (Active Pass Pharmaceuticals, Inc., priority 2001, published 2003)
